Consider one compound from US20100144736A1, “NOVEL BIPHENYL THIO-UREA DERIVATIVES USEFUL AS POTASSIUM CHANNEL MODULATORS” (NeuroSearch A/S, priority 2006, published 2010).

The target in the assay is T1, BK channels heterologously expressed in Xenopus laevis oocytes (Homo sapiens, UniProt Q12791).
T1 construct: expressed in transfected cells; host or cells: Xenopus laevis oocytes
Description: BK channel opening activity, two-electrode voltage clamp in Xenopus laevis oocytes. The conditions noted are these: Compound added in increasing concentrations, 1, 3 and 10 μM; step from −40 mV to +30 mV; FIG. 1. The class given is cell-based. As for the experimental part:
The electrical current through the BK channel is measured conventional two-electrode voltage clamp. BK current is activated by repeated step protocols. In brief, this protocol goes from a resting membrane potential of −40 mV lasting for 5 s to a depolarised step to +30 mV lasting for 1 s. The protocol was repeated continuously.
Having reached a stable current level, Compound 1 was added in increasing concentrations. Between each application compound was washed out until baseline current activity was obtained.
A general note: Two-electrode voltage clamp is typically applied to oocytes expressing channels or transporters.

T1 sequence (Q12791 whole entry): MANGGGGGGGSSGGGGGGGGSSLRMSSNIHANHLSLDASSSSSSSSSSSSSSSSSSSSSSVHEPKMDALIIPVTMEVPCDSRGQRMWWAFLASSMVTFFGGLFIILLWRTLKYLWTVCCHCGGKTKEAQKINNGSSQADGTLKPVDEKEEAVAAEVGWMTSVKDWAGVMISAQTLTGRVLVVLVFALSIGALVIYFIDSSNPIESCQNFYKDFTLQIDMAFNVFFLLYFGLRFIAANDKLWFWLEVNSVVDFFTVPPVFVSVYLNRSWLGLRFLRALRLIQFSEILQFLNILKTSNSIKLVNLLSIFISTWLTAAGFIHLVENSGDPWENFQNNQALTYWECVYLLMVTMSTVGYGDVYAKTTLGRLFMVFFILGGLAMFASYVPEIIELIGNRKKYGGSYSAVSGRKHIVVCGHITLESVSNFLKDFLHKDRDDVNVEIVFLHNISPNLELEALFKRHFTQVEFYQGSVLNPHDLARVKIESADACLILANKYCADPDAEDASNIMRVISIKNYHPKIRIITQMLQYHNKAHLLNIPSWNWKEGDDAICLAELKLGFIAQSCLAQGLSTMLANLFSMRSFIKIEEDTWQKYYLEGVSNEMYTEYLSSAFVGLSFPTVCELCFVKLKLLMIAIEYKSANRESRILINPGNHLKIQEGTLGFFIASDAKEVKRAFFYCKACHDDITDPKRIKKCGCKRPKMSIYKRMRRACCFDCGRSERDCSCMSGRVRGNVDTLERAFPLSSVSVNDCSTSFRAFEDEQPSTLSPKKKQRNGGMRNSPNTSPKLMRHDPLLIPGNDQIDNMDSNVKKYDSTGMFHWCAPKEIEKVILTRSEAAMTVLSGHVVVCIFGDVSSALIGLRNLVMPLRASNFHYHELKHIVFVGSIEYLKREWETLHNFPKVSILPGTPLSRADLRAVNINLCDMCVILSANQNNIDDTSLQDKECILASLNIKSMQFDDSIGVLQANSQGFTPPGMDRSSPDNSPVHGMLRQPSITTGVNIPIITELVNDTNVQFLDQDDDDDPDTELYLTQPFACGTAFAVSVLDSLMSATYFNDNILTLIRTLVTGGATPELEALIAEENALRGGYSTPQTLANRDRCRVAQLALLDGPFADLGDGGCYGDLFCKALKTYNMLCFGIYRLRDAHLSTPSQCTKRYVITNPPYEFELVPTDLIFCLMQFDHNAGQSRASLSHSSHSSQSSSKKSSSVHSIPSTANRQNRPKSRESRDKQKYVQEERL

With `FC(F)(F)c1cc(NC(=S)Nc2ccc(Br)cc2-c2nnn[nH]2)cc(C(F)(F)F)c1` [Compound 1, 1-(3,5-Bis-trifluoromethyl-phenyl)-3-[4-bromo-2-(1H-tetrazol-5-yl)-phenyl]-thiourea], the “current activated by depolarisation (BK current)” value is given as “marked increase”.
